# ChEMBL document CHEMBL1157539, “Thousands of chemical starting points for antimalarial lead identification” (Nature, 2010)
# Test system: Plasmodium falciparum
# Test: GSK_TCMDC: Inhibition of Plasmodium falciparum 3D7 in whole erythrocytes, using parasite LDH activity as an index of growth.
# Assay type: functional, organism-based
# Conditions: Plasmodium falciparum, 3D7
row,Compound,XC50
1,CCN(CC)CCN(Cc1ccc(-c2ccc(C(F)(F)F)cc2)cc1)C(=O)Cn1c(CCc2cccc(F)c2F)nc(=O)c2cccnc21,0.728 µM
2,CCN(CC)CCN(Cc1ccc(-c2ccc(C(F)(F)F)cc2)cc1)C(=O)Cn1c(CCc2cccc(C#N)c2)nc(=O)c2ccccc21,0.768 µM
3,CCN(CC)CCN(Cc1ccc(-c2ccc(C(F)(F)F)cc2)cc1)C(=O)Cn1c(CCc2c(F)ccc(F)c2F)nc(=O)c2ccccc21,0.238 µM
4,CCCCCOc1ccc(/N=C2\C=C(O)C(=O)c3ccccc32)cc1,0.243 µM
5,COc1cccc2c(Nc3ccccc3C)nc(Nc3ccccc3C)nc12,0.679 µM
6,OC(CNCc1ccccc1OCc1ccccc1)c1cc(C(F)(F)F)cc(C(F)(F)F)c1 (stereo not drawn),0.134 µM
7,CCc1cc2c3c(N)nc(N)nc3ccc2n1C(C)(C)C,0.0127 µM
8,CCc1cn2c3c(cc(C(=O)N[C@@H](Cc4ccccc4)[C@H](O)CNCc4ccccc4)cc13)N(C)S(=O)(=O)CC2,0.664 µM
9,CN1CCC(NCc2ccc(-c3ccc(Cl)cc3)cc2)CC1,0.75 µM
10,CCCc1cc(C)ccc1OCCCON1C(N)=NC(N)=NC1(C)C,0.0032 µM
11,OCCC1CCN(Cc2ccc(-c3ccc(-c4nc5ccccc5[nH]4)cc3)cc2)CC1,0.768 µM
12,CS(=O)(=O)CCNCc1nc(-c2ccc3c(Nc4ccc(Oc5ccccn5)cc4)ccnc3c2)cs1,0.675 µM
13,CCCC(C)Nc1nc(C)cc(N[C@@H](Cc2ccccc2)C(=O)NCc2ccc(C)cc2)n1 (stereo partly drawn),1.12 µM
14,CN1CCN(CCCNCc2ccccc2-c2cccc(CNCc3ccc4c(c3)OCO4)c2)CC1,0.793 µM
15,CCN1CCN(Cc2c(O)ccc3c(=O)c(Oc4cc(C)cc(C)c4)c(C(F)(F)F)oc23)CC1,0.773 µM
16,CC[C@H](C)[C@H](NC(=O)[C@H](CC1CCCCC1)[C@H](CC)N(O)C=O)C(=O)Nc1ccccn1,0.176 µM
17,CCCNC(=O)c1cncc(-c2ccc(CNCCCc3ccccc3)cc2)c1,0.688 µM
18,COc1cc(C(=O)NC2CCN(Cc3ccccc3)CC2)ccc1-c1cc2cc(Cl)c(Cl)cc2[nH]1,0.227 µM
19,COc1ccc(-c2cc(-c3nc4cc(CN)ccc4[nH]3)c(=O)n(C)c2)cc1OC,1.4 µM
20,COc1ccc2nccc([C@@H](O)CN3CCC(NCc4cc5ccccc5s4)CC3)c2c1,0.347 µM
21,O=C(Nc1ccc(-c2ccc(-c3nc4ccccc4[nH]3)s2)cc1)c1ccncc1,0.789 µM
22,NC(=O)c1cccc(CNCc2ccc(-c3cccc(-c4nc5ccccc5[nH]4)c3)cc2)c1,0.592 µM
23,c1ccc(Cn2nnnc2-c2cccc(Nc3ccnc4cc(-c5nccs5)ccc34)c2)cc1,0.826 µM
24,COc1ccc2nc(C)cc(Nc3ccc(Cl)cc3)c2c1,0.946 µM
25,O=S(=O)(c1ccccc1)C1CC1,0.724 µM

row,Compound,XC50
1,Clc1ccc2c(NCc3ccccc3)ccnc2c1,0.339 µM
2,CC(C)(C)c1ccc(CNC(=O)c2ccc(CNC3CCC(N)CC3)s2)cc1 (stereo not drawn),0.531 µM
3,O=C(Nc1cccc(OCc2ccccc2)c1)c1ccc(CN2CCC(Cc3ccccc3)CC2)cc1,0.85 µM
4,COc1cccc2c(NN=Cc3cccc(Cl)c3)cc(C)nc12,0.709 µM
5,Cc1ccc2[nH]c3c(NCCN(C)C)ncnc3c2c1,0.838 µM
6,O=C(NCCCCN1CCC(O)(c2ccc3c(c2)OCO3)CC1)c1ccc(NC(=O)c2ccc(Cl)cc2)cc1,1.18 µM
7,CCOc1cc(CC)ccc1C1CCN(CCN2CCC(NC(=O)c3ccc(-c4ccc(C(C)=O)cc4)cc3)CC2)CC1,0.226 µM
8,COc1cc(C(=O)N2CCOC(CCN3CCC(c4ccc(Cl)cc4)CC3)(c3ccc(Cl)c(Cl)c3)C2)cc(OC)c1OC (stereo not drawn),0.179 µM
9,COc1ccc(-c2ccc(CNC(=O)c3ccc(Cl)cc3)c(F)c2)cc1CN1CCCN(C)CC1,0.705 µM
10,COc1ccc2nccc([C@@H](O)CN3CCC(NCc4ccc(OC)c(NC(C)=O)c4)CC3)c2c1,0.835 µM
11,Nc1ccc(-c2ccc(NC(=O)Nc3ccccc3)cc2)cn1,0.92 µM
12,O=C(/C=C/c1ccc(Cl)c(Cl)c1)NCCCCCCN1CCCN(C(=O)Nc2ccc(F)c(F)c2)CC1,1.24 µM
13,Cc1ccc(NC(=O)C(C)Sc2nnc(-c3ccccc3Br)[nH]2)cc1 (stereo not drawn),1.09 µM
14,CCN1CCN(c2cc(C)c3cc(NC(=O)c4cccc([N+](=O)[O-])c4)ccc3n2)CC1,0.524 µM
15,CNC(=O)c1ccc2[nH]cc(C3CCN(CC4CCN(C(=O)/C=C/c5ccc(Cl)c(Cl)c5)CC4)CC3)c2c1,1.52 µM
16,c1ccc(C(c2ccccc2)N2CCC(NCc3ccc(OCCCN4CCCCC4)cc3)CC2)cc1,0.557 µM
17,COc1cc(NCCCNC(=O)c2cn(Cc3ccccc3)c3ccccc23)nc2ccccc12,0.868 µM
18,O=C(NCC1CCN(Cc2cccc(C(F)(F)F)c2)C1)c1cc(-c2cccc(Cl)c2)cs1 (stereo not drawn),0.803 µM
19,CN(c1cc(NC(=O)c2ccccc2)ccn1)C1CCN(Cc2cccc(F)c2)CC1,0.738 µM
20,CCCC(C(=O)OCCNC)(c1ccccc1)c1ccccc1,0.889 µM
21,COc1ccc(CC2(c3ccc(F)cc3)N=C(N)N(CCCc3ccccc3)C2=O)cc1 (stereo not drawn),0.613 µM
22,FC(F)(F)c1ccc2[nH]c(-c3cccc(-c4ccc(CNCc5cnn(-c6ccccc6)n5)cc4)c3)nc2c1,1.33 µM
23,COc1ccc(CN2CCCN(Cc3cccc(NC(=O)c4cc5ccccc5s4)c3)CC2)cc1,0.842 µM
24,COc1ccc(CNC(=O)NC2CCN(c3ccnc(Nc4cc(OC)c(OC)c(OC)c4)n3)C2)cc1 (stereo not drawn),0.946 µM
25,N=C(Nc1cccc(Cc2ccccc2)n1)Nc1ncccn1,0.928 µM

row,Compound,XC50
1,c1cc(OCCN2CCCC2)ccc1CNC1CCN(CC2CCCCC2)CC1,0.845 µM
2,CC[C@H](C)CNC(=O)c1ccnc(-c2ccc(CNCCCc3ccccc3)cc2)c1,1.23 µM
3,CNCc1ccc(-c2cccc(CNCc3ccc(-c4ccccc4)cc3)c2)c(C(=O)OC)c1,0.98 µM
4,COc1cc(NCC(O)CNc2cc(OC)c3ccccc3n2)nc2ccccc12,0.109 µM
5,COc1ccc(Cn2c(Nc3cccc(C(F)(F)F)c3)nc3cc(C(=O)NCCN4CCCC4)cnc32)cc1Cl,0.915 µM
6,Cc1cc(Oc2cc(NC(=O)c3sc4ncn(Cc5ccccc5F)c(=O)c4c3C)cc([N+](=O)[O-])c2)ccc1Cl,1.15 µM
7,COc1c(F)cc(CC(C)NCC(O)c2cccc(Cl)c2)cc1F (stereo not drawn),1.16 µM
8,CN(C)CCCOc1cc(NC(=O)Nc2ccc(-c3ccncc3)c3ccccc23)ccc1I,0.699 µM
9,CCCc1nc2c(N3CC(NC(=O)/C=C/c4ccccc4)C3)cccc2n1C1CC1,0.554 µM
10,Clc1ccc2nc(-c3cccnc3)[nH]c2c1,0.0384 µM
11,Cc1ccc(Cc2c(C)nc3nc(N)nc(N)c3c2C)cc1,0.243 µM
12,CC(C)CCNC(=O)C1Cc2c([nH]c3cc(Br)ccc23)C2(CCN(Cc3ccccc3)CC2)N1 (stereo not drawn),0.792 µM
13,Nc1ncnc2cc(-c3cccc(NC(=O)Nc4ccccc4)c3)sc12,0.705 µM
14,COc1cc2c(cc1NS(=O)(=O)c1ccc(OCc3ccc(Br)cc3)cc1)CCN(C1CCC1)CC2,0.843 µM
15,COc1cc2nc(NCCCN3CCCCC3)nc(NCc3ccccc3)c2cc1OC,0.998 µM
16,O=S(=O)(c1ccc(OCc2ccc(Cl)cc2)cc1)c1cc2c(c(-c3ccc(F)cc3)c1)CCN(CC1CC1)CC2,1.12 µM
17,c1ccc(-c2ccc3c(Nc4ccc5[nH]ccc5c4)ccnc3c2)nc1,0.943 µM
18,O=C(NCc1ccc(F)cc1)Nc1cccc(-c2ccc(-c3nc4ccccc4[nH]3)cc2)c1,0.165 µM
19,CCCCN1CCN(c2cc(NS(=O)(=O)c3ccc(C(=O)Nc4ccc(C(F)(F)F)cc4)cc3)ccc2OC)CC1,0.664 µM
20,OCC1CCCCN1Cc1cccc(-c2cccc(-c3nc4ccccc4[nH]3)c2)c1 (stereo not drawn),0.779 µM
21,CC(C)CCCC(C)(C)NC[C@@H](O)[C@H](Cc1ccccc1)NC(=O)c1cc(NC(C)C)cc(N2CCCCS2(=O)=O)c1,0.206 µM
22,CC(=O)NCCNc1nccc(N2CCc3ncnc(Nc4ccc(OCc5cccc(F)c5)c(Cl)c4)c3C2)n1,0.129 µM
23,CCCCCCNc1cc(C)nc2ccc(OC)cc12,0.552 µM
24,OC1CCCN(Cc2cccc(-c3ccc(-c4nc5cc(C(F)(F)F)ccc5[nH]4)cc3)c2)C1 (stereo not drawn),0.69 µM
25,CCOc1cc2ncnc(Nc3cc(Cl)c(Cl)c(Cl)c3)c2cc1OCC,0.197 µM

row,Compound,XC50
1,O=c1cc(NCCCNCc2cc(C(F)(F)F)ccc2F)[nH]c2ccccc12,0.829 µM
2,O=C(Nc1cc(Cl)cc(Cl)c1)N[C@H]1CCN(CCCCCNC(=O)C2CC2c2ccc(Cl)c(Cl)c2)C1 (stereo partly drawn),0.856 µM
3,Cc1cc(C(=O)Nc2ccc3c(c2)CCN3C2CCN(Cc3cccc4cc[nH]c34)C2)no1 (stereo not drawn),0.189 µM
4,Cc1nc(N)nc(N)c1-c1cc(Cl)c(Cl)c(Cl)c1,0.834 µM
5,CSc1cccc(Nc2nc3ccc(S(=O)(=O)NCC(C)C)cc3n2C(C)C(C)C)c1 (stereo not drawn),0.824 µM
6,COC(=O)c1noc(C)c1I,0.802 µM
7,CC(=O)Nc1ccc2[nH]cc(C3CCN(CCC4CCN(C(=O)/C=C/c5ccc(Cl)c(Cl)c5)CC4)CC3)c2n1,0.518 µM
8,Fc1ccc(CN2CCN(c3ncnc4cc(-c5ccccc5)sc34)CC2)cc1,1.02 µM
9,CCOc1ccc(OCC)c(N2CCN(CCCCNC(=O)c3ccc(NC(=O)c4ccc(Cl)cc4)cc3)CC2)c1,0.587 µM
10,O=S(=O)(Nc1cc2c(cc1O)CCN(C1CCC1)CC2)c1ccc(Oc2ccc(F)cc2)cc1,0.775 µM
11,CN(C)Cc1cccc(-c2cc3c(-c4cnn(C)c4)c(Cl)cnc3[nH]2)c1,0.905 µM
12,FC(F)(F)c1cc(C(F)(F)F)c2cc(CNCCCNc3nc4ccccc4[nH]3)[nH]c2c1,0.141 µM
13,CC(=O)Nc1ccc(CN2CCC(N(C)c3cc(NC(=O)c4cccs4)ccn3)CC2)cc1,0.892 µM
14,CN1CCC(C(=O)Nc2cccc(-c3ccc(-c4nc5cc(F)ccc5[nH]4)cc3)c2)CC1,0.706 µM
15,COc1ccc(Nc2ccnc3cc(Cl)ccc23)cc1OC,1.12 µM
16,O=C(/C=C/c1ccc(Cl)c(Cl)c1)NCCCCN1CCCN(C(=O)Nc2ccc(Cl)c(Cl)c2)CC1,0.859 µM
17,Clc1ccc(-c2cc3c(NCc4ccncc4)nccc3s2)cc1,0.852 µM
18,COc1ccccc1-c1csc(C(=O)NCC2CCN(Cc3ccc(C(C)C)cc3)C2)c1 (stereo not drawn),1.35 µM
19,C[C@@]12C[C@@H](Nc3nc(NCCc4ccc(O)cc4)nc(N4CCNCC4)n3)C[C@@H](C1)c1cccc(Cl)c1O2,1.32 µM
20,CCN(CC)CCCNCc1ccc(-c2ccc(C(F)(F)F)cc2)cc1,0.993 µM
21,Cc1c(F)cc(C(=O)NC2CC2)cc1-c1ccc2c(cnn2S(=O)(=O)c2ccc(C#N)cc2)c1,0.1 µM
22,O=C(Nc1ccc(Cl)cc1C(=O)Nc1ccncc1)c1ccc(Cl)cc1Cl,0.611 µM
23,Nc1nc(N)c2c(n1)CCC(c1ccccc1)C2 (stereo not drawn),1.01 µM
